The source made the active and inactive calls. The rule behind the calls is not given here.
Tested on: GENE-TOX genotoxicity assays, various organisms and cells
Test: GENE-TOX mutagenicity studies
Conditions: for call: Assay Type: In vivo carcinogenicity studies
[1] = Species/Cell Type: Rodents, Sex: Male, Assay Type: Dominant lethal test, Assay Code: DLT-, Evaluation Type: Evaluation A (Pre-1980)
[2] = Species/Cell Type: Drosophila melanogaster, Assay Type: Sex-linked recessive lethal gene mutation, Assay Code: SRL+, Evaluation Type: Evaluation A (Pre-1980)
[3] = Species/Cell Type: Nonhuman, Assay Code: CCG+, Evaluation Type: Evaluation A (Pre-1980)
[4] = Species/Cell Type: Nonhuman, Assay Type: Sister-chromatid exchange (SCE) in vitro, Assay Code: SC2+D, Dose Response: With dose response, Evaluation Type: Evaluation B (Post-1980)
[5] = Species/Cell Type: Salmonella typhimurium (one or more of the five standard strains: TA98, TA100, TA1535, TA1537, and TA1538), Assay Type: Histidine reverse gene mutation, Ames assay, Assay Code: SAL+*, Activation: With metabolic activation, Evaluation Type: Evaluation A (Pre-1980)
[6] = Species/Cell Type: Chinese hamster lung (V79) cells, Assay Type: Forward gene mutation at the HPRT or ouabain locus, Assay Code: V79+, Evaluation Type: Evaluation A (Pre-1980)
[7] = Species/Cell Type: Mammalian polychromatic erythrocytes, Assay Type: Micronucleus test, chromosome aberrations, Assay Code: MNTT, Evaluation Type: Evaluation A (Pre-1980)
[8] = Species/Cell Type: Nonhuman, Assay Type: Sister-chromatid exchange (SCE) in vitro, Assay Code: SC2+, Evaluation Type: Evaluation B (Post-1980)
[9] = Species/Cell Type: Syrian hamster embryo (SHE) cells, Assay Type: Cell transformation, clonal assay, Assay Code: CTC-, Evaluation Type: Evaluation A (Pre-1980)
[10] = Species/Cell Type: Bacillus subtilis (H17 vs M45), Assay Type: Rec-assay, spot test, DNA effects (bacterial DNA repair), Assay Code: REW-, Evaluation Type: Evaluation A (Pre-1980)
[11] = Species/Cell Type: Bacillus subtilis (H17 vs M45T), Assay Type: Rec-assay, spot test, DNA effects (bacterial DNA repair), Assay Code: REXT, Evaluation Type: Evaluation A (Pre-1980)
[12] = Species/Cell Type: Escherichia coli WP2, Assay Type: Tryptophan reverse gene mutation, Assay Code: WP2+, Evaluation Type: Evaluation A (Pre-1980)
[13] = Species/Cell Type: Salmonella typhimurium (one or more of the five standard strains: TA98, TA100, TA1535, TA1537, and TA1538), Assay Type: Histidine reverse gene mutation, Ames assay, Assay Code: SAL+, Evaluation Type: Evaluation A (Pre-1980)
[14] = Species/Cell Type: Nonhuman, Assay Code: CCG+L, Evaluation Type: Evaluation A (Pre-1980)
[15] = Species/Cell Type: Salmonella typhimurium (one or more of the five standard strains: TA98, TA100, TA1535, TA1537, and TA1538), Assay Type: Histidine reverse gene mutation, Ames assay, Assay Code: SALT, Evaluation Type: Evaluation A (Pre-1980)

Compound: O=C[C@H](O)[C@@H](O)[C@H](O)[C@H](S)CO
- mutagenic call [1]: inactive; negative

Compound: O=c1ccc2c(cc(O)c3c4ccccc4nnc23)o1
- mutagenic call (Species/Cell Type: Mammalian polychromatic erythrocytes, Assay Type: Micronucleus test, chromosome aberrations, Assay Code: MNTT, Evaluation Type: Evaluation B (Post-1980)): no conclusion

Compound: C=CN(C)N=O
- mutagenic call [2]: active; positive
- call [3]: active; positive

Compound: CC(=O)Oc1c(Cl)c(Cl)c(Cl)c(Cl)c1Cl
- mutagenic call (Species/Cell Type: Bacillus subtilis (H17 vs M45), Assay Type: Rec-assay, spot test, DNA effects (bacterial DNA repair), Assay Code: REWT, Evaluation Type: Evaluation A (Pre-1980)): no conclusion

Compound: c1ccc(N=Nc2ccccc2)cc1
- call [3]: active; positive
- mutagenic call [4]: active; positive
- mutagenic call [5]: active; positive

Compound: NC(=O)N(CCCl)N=O
- mutagenic call [6]: active; positive

Compound: CN(C)C=O
- mutagenic call [7]: no conclusion
- mutagenic call (Species/Cell Type: Mouse, Sex: Male, Assay Type: Sperm morphology, Assay Code: SPI-, Evaluation Type: Evaluation A (Pre-1980)): inactive; negative
- mutagenic call [8]: active; positive
- mutagenic call (Species/Cell Type: Rat primary hepatocytes, Assay Type: Unscheduled DNA synthesis (UDS) in vitro, DNA effects, Assay Code: UDP-, Evaluation Type: Evaluation A (Pre-1980)): inactive; negative
- mutagenic call [9]: inactive; negative

Compound: OC1C=Cc2c(cc3ccc4cccc5ccc2c3c45)C1O (configuration not stated)
- mutagenic call [6]: active; positive

Compound: c1ccc2cc3c4c(ccc3cc2c1)CCC1OC41 (configuration not stated)
- mutagenic call [6]: active; positive

Compound: O[C@@H]1[C@@H]2O[C@@H]2c2cc3ccc4cccc5ccc(c2[C@H]1O)c3c45
- mutagenic call [6]: active; positive
- mutagenic call [4]: active; positive

Compound: Nc1cccc2cc3ccccc3cc12
- mutagenic call (Species/Cell Type: Escherichia coli polA (W3119 vs P3478), Assay Type: Rec-assay, DNA effects (bacterial DNA repair), Assay Code: RE1T, Evaluation Type: Evaluation A (Pre-1980)): no conclusion
- mutagenic call (Species/Cell Type: Fischer rat embryo (RLV/1706) cells, Assay Type: Cell transformation, viral enhanced, Assay Code: CTR-, Evaluation Type: Evaluation A (Pre-1980)): inactive; negative
- mutagenic call (Species/Cell Type: Saccharomyces cerevisiae, Assay Type: Mitotic recombination or gene conversion, Assay Code: YEH+/-*, Activation: With metabolic activation, Evaluation Type: Evaluation A (Pre-1980)): inactive; positive without activation, negative with activation
- mutagenic call [5]: active; positive
- mutagenic call (Species/Cell Type: Salmonella typhimurium, Assay Type: Forward and reverse gene mutation, host-mediated assay, Assay Code: HMA-, Evaluation Type: Evaluation A (Pre-1980)): inactive; negative
- mutagenic call [9]: inactive; negative

Compound: C[C@@H]1CCCCN1N=O
- call [3]: active; positive

Compound: O=C1OC(c2ccc(O)cc2)(c2ccc(O)cc2)c2ccccc21
- mutagenic call [10]: inactive; negative
- mutagenic call [11]: no conclusion

Compound: CN(C)c1nc(N(C)C)nc(N(C)C)n1
- mutagenic call [2]: active; positive

Compound: Clc1cc(Cl)c(OCC#CI)cc1Cl
- mutagenic call (Species/Cell Type: Neurospora crassa, Assay Type: Aneuploidy, chromosome aberrations, Assay Code: NEN-, Evaluation Type: Evaluation A (Pre-1980)): inactive; negative

Compound: Cc1ccc(N=Nc2c(O)ccc3ccccc23)c(C)c1
- mutagenic call [11]: no conclusion
- mutagenic call [5]: active; positive

Compound: CN(C)c1ccc(N=NS(=O)(=O)O)cc1
- mutagenic call (Species/Cell Type: Bacillus subtilis (H17 vs M45), Assay Type: Rec-assay, spot test, DNA effects (bacterial DNA repair), Assay Code: REW+, Evaluation Type: Evaluation A (Pre-1980)): active; positive
- mutagenic call [12]: active; positive
- mutagenic call (Species/Cell Type: Escherichia coli WP2 UVRA, Assay Type: Tryptophan reverse gene mutation, Assay Code: WPU+, Evaluation Type: Evaluation A (Pre-1980)): active; positive
- mutagenic call (Species/Cell Type: Human lymphocytes, Assay Type: Sister-chromatid exchange (SCE) in vitro, Assay Code: SCL+D, Dose Response: With dose response, Evaluation Type: Evaluation B (Post-1980)): active; positive
- mutagenic call (Species/Cell Type: Human, Assay Type: Sister-chromatid exchange (SCE) in vitro, Assay Code: SC1+D, Dose Response: With dose response, Evaluation Type: Evaluation B (Post-1980)): active; positive
- call (Species/Cell Type: Nonhuman, Assay Code: CCG-, Evaluation Type: Evaluation A (Pre-1980)): inactive; negative
- mutagenic call [8]: active; positive
- mutagenic call [13]: active; positive

Compound: C=CC(=O)OC
- mutagenic call (Species/Cell Type: Mammalian polychromatic erythrocytes, Assay Type: Micronucleus test, chromosome aberrations, Assay Code: MNT+U, Dose Response: Unconfirmed positive response, Evaluation Type: Evaluation B (Post-1980)): active; positive

Compound: CCCCCCCCO
- mutagenic call (Species/Cell Type: Nonhuman, Assay Type: Sister-chromatid exchange (SCE) in vitro, Assay Code: SC2T, Evaluation Type: Evaluation B (Post-1980)): no conclusion

Compound: COC1=C(OC)C(=O)C(C/C=C(\C)CC/C=C(\C)CC/C=C(\C)CC/C=C(\C)CC/C=C(\C)CC/C=C(\C)CCC=C(C)C)=C(C)C1=O
- mutagenic call (Species/Cell Type: Human, Sex: Male, Assay Type: Sperm morphology, Assay Code: SPHT, Evaluation Type: Evaluation A (Pre-1980)): no conclusion

Compound: O=NN1CCNC1=S
- mutagenic call [7]: no conclusion
- mutagenic call [4]: active; positive
- mutagenic call [1]: inactive; negative

Compound: Oc1ccc2cccnc2c1
- mutagenic call (Species/Cell Type: Salmonella typhimurium (one or more of the five standard strains: TA98, TA100, TA1535, TA1537, and TA1538), Assay Type: Histidine reverse gene mutation, Ames assay, Assay Code: SAL-, Evaluation Type: Evaluation A (Pre-1980)): inactive; negative

Compound: O=[N+]([O-])c1ccc(Oc2ccc(Cl)cc2Cl)cc1
- mutagenic call [7]: no conclusion
- call [3]: active; positive

Compound: N#Cc1c(Cl)c(Cl)c(Cl)c(C#N)c1Cl
- mutagenic call (Species/Cell Type: Hordeum vulgare (barley), Assay Type: Chromosome aberrations, Assay Code: HOC-, Evaluation Type: Evaluation A (Pre-1980)): inactive; negative
- call [14]: active; positive

Compound: Nc1ncn([C@@H]2O[C@H](CO)[C@@H](O)[C@H]2O)c(=O)n1
- mutagenic call (Species/Cell Type: Human lymphocytes, Assay Type: Sister-chromatid exchange (SCE) in vitro, Assay Code: SCL+, Evaluation Type: Evaluation B (Post-1980)): active; positive
- mutagenic call (Species/Cell Type: Human, Assay Type: Sister-chromatid exchange (SCE) in vitro, Assay Code: SC1+, Evaluation Type: Evaluation B (Post-1980)): active; positive
- mutagenic call (Species/Cell Type: Mouse (C3H/10T1/2) cells, Assay Type: Cell transformation, Assay Code: CTH+, Evaluation Type: Evaluation A (Pre-1980)): active; positive
- call [14]: active; positive
- mutagenic call [4]: active; positive

Compound: CON(C)C(=O)Nc1ccc(Cl)c(Cl)c1
- mutagenic call (Species/Cell Type: Hordeum vulgare (barley), Assay Type: Chromosome aberrations, Assay Code: HOC+, Evaluation Type: Evaluation A (Pre-1980)): active; positive
- mutagenic call [15]: no conclusion
- mutagenic call (Species/Cell Type: Vicia faba, Assay Type: Chromosome aberrations, Assay Code: VIC+, Evaluation Type: Evaluation A (Pre-1980)): active; positive

Compound: COc1c(C)c2c(c(O)c1C/C=C(\C)CCC(=O)O)C(=O)OC2
- mutagenic call [10]: inactive; negative
- mutagenic call (Species/Cell Type: Nonhuman, Assay Type: Chromosome aberrations in vitro, Assay Code: CY&+, Evaluation Type: Evaluation A (Pre-1980)): active; positive
- mutagenic call [15]: no conclusion

Compound: O[C@@H]1C=Cc2c(cc3ccc4cccc5ccc2c3c45)[C@@H]1O
- mutagenic call [15]: no conclusion

Compound: CCC1CCCCN1CCNc1ccc(CO)c2sc3ccccc3c(=O)c12 (configuration not stated)
- mutagenic call (Species/Cell Type: Mouse lymphoma (L5178Y) cells, Assay Type: Forward gene mutation at the thymidine kinase (TK) locus, chromosome aberrations, Assay Code: L51+, Evaluation Type: Evaluation A (Pre-1980)): active; positive

Compound: Nc1nc(-c2ccc([N+](=O)[O-])o2)cs1
- mutagenic call [12]: active; positive
- mutagenic call (Species/Cell Type: Escherichia coli WP2 UVRA, Assay Type: Tryptophan reverse gene mutation, Assay Code: WPU-, Evaluation Type: Evaluation A (Pre-1980)): inactive; negative
- mutagenic call [4]: active; positive
- mutagenic call [13]: active; positive
